Laboratory results reported in patent publication US20240391899A1, “POTENT AND SELECTIVE INHIBITORS OF IRAK4” (Dana-Farber Cancer Institute, Inc., priority 2021, published 2024).

Legend:
[1] = target: T1, IRAK1 (Homo sapiens, UniProt P51617); assay: IRAK1 enzymatic assay (Adapta Universal Kinase Assay, ThermoFisher); assay type: biochemical; conditions: 60 minutes at room temperature
T1 construct: purchased ThermoFisher
Procedure: To measure the IC50 values of the compounds herein against IRAK1, the Adapta Universal Kinase Assay (ThermoFisher) was used. Briefly, 100 nL of different concentrations of the compounds in 100% DMSO were added to each well of a 384-well plate (Corning Cat. #4512). 2.4 μL of 30 mM HEPES, 2.5 μL of 4×ATP solution (in water), and 5 μL of 2×IRAK1/Histone H3 (1-20) peptide mixture (prepared in 50 mM HEPES pH 7.5, 0.01% BRIJ-35, 10 mM MgCl2, 1 mM EGTA) were added to each well. The plate was shaken for 30 seconds and centrifuged for 1 minute at 1000×g. The plate was then incubated at room temperature for 60 minutes. 5 μL of Detection Mix was added to each well. The plate was shaken for 30 seconds and centrifuged for 1 minute at 1000×g. The plate was then incubated at room temperature for 60 minutes. The plate was subsequently read on a fluorescence plate reader, and the emissions ratio was calculated to determine the ratio of ATP to ADP. Emissions Ratio=AF647 Emission (665 nm)/Europium Emission (615 nm).

[2] = target: T2, IRAK4 (Homo sapiens, UniProt Q9NWZ3); assay: IRAK4 enzymatic assay (Z'-LYTE, ThermoFisher); assay type: biochemical; conditions: 60 minutes at room temperature
T2 construct: purchased ThermoFisher
T2 sequence (Q9NWZ3 1-460): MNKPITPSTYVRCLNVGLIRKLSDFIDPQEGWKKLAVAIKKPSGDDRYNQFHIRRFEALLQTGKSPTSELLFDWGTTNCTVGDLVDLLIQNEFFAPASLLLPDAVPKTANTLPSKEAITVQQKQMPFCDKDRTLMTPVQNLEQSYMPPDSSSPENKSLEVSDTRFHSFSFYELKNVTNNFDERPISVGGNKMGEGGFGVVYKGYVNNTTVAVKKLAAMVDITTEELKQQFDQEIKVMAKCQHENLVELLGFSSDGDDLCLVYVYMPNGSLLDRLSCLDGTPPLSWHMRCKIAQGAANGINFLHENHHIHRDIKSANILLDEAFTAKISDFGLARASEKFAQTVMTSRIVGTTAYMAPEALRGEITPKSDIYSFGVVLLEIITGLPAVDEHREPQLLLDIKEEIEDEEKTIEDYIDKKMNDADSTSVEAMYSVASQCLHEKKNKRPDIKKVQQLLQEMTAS
Procedure: To measure the IC50 values of compounds herein against IRAK4, a Z′-LYTE assay (ThermoFisher) was used. Briefly, 2.5 μL of different concentrations of the compounds in 1% DMSO were added to 2.4 μL kinase buffer (50 mM HEPES pH 7.5, 0.01% BRIJ-35, 10 mM MgCl2, 1 mM EGTA) in each well of a 384-well plate (Corning Cat. #3676). 5 μL of 2×IRAK4/Ser/Thr 07 mixture (prepared in 50 mM HEPES pH 7.5, 0.01% BRIJ-35, 10 mM MnCl2, 2 mM DTT, and 0.02% NaN3) and 2.5 μL of 4×ATP solution (4×ATP, 50 mM HEPES, pH 7.5, 0.01% BRIJ-35, 10 mM MgCl2, 1 mM EGTA) were added to each well. The plate was shaken for 30 seconds, and then incubated at room temperature for 60 minutes. 5 μL of a 1:100000 dilution of Development Reagent A was added to each well. The plate was shaken for 30 seconds and incubated for 60 minutes at room temperature. The plate was subsequently read on a fluorescence plate reader, and the emissions ratio was calculated to determine the ratio of Ser/Thr 07 phosphorylated by the reaction. Emissions Ratio=Coumarin Emission (443 nm)/Flourescein Emission (520 nm).

T1 sequence (P51617 whole entry): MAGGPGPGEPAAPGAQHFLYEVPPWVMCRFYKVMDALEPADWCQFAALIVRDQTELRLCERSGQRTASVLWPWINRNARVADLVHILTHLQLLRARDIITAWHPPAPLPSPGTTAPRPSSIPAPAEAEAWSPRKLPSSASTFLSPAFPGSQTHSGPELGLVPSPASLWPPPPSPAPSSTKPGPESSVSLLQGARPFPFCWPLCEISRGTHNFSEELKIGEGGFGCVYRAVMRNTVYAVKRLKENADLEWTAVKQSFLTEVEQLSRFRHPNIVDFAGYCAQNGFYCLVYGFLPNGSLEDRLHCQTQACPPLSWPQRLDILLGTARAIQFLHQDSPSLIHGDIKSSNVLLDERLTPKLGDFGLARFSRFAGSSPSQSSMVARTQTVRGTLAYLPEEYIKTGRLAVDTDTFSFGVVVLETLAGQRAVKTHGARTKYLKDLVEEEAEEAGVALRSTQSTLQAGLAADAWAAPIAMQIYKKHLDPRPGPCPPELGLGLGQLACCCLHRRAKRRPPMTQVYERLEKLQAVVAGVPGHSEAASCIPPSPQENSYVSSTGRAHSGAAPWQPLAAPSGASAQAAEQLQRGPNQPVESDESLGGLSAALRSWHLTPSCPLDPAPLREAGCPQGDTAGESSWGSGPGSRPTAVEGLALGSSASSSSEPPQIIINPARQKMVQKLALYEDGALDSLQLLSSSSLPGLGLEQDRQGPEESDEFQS

Row | IC50 [1] [nM] | IC50 [2] [nM] | Compound
1 | 1350 | 148 | Cc1ccc(-n2nc(C3CCN(C4COC4)CC3)cc2NC(=O)c2ccccn2)nc1 [Compound 008, N-(1-(5-methylpyridin-2-yl)-3-(1-(oxetan-3-yl)piperidin-4-yl)-1H-pyrazol-5-yl)picolinamide]
2 | 8 | 4 | CN1CCC(c2cc(NC(=O)c3cccc(-c4ccn[nH]4)n3)n(-c3ccccn3)n2)CC1 [Compound 001, N-(3-(1-Methylpiperidin-4-yl)-1-(pyridin-2-yl)-1H-pyrazol-5-yl)-6-(1H-pyrazol-5-yl)picolinamide]
3 | 718 | 45 | Cc1ccc(-n2nc(C3CCN(C(C)C)CC3)cc2NC(=O)c2cccc(-c3cnn(CC(=O)N(C)C)c3)n2)nc1 [Compound 013, 6-(1-(2-(dimethylamino)-2-oxoethyl)-1H-pyrazol-4-yl)-N-(3-(1-isopropylpiperidin-4-yl)-1-(5-methylpyridin-2-yl)-1H-pyrazol-5-yl)picolinamide]
4 | 1650 | 55 | Cc1ccc(-n2nc(C3CCN(C(C)C)CC3)cc2NC(=O)c2ccccn2)nc1 [Compound 009, N-(3-(1-isopropylpiperidin-4-yl)-1-(5-methylpyridin-2-yl)-1H-pyrazol-5-yl)picolinamide]
5 | 656 | 36 | CNC(=O)Cn1cc(-c2cccc(C(=O)Nc3cc(C4CCN(C(C)C)CC4)nn3-c3ccc(C)cn3)n2)cn1 [Compound 014, N-(3-(1-isopropylpiperidin-4-yl)-1-(5-methylpyridin-2-yl)-1H-pyrazol-5-yl)-6-(1-(2-(methylamino)-2-oxoethyl)-1H-pyrazol-4-yl)picolinamide]
6 | 234 | 24 | CC(C)N1CCC(c2cc(NC(=O)c3cccc(/C=C/C(N)=O)n3)n(-c3ccccn3)n2)CC1 [Compound 018, (E)-6-(3-amino-3-oxoprop-1-en-1-yl)-N-(3-(1-isopropylpiperidin-4-yl)-1-(pyridin-2-yl)-1H-pyrazol-5-yl)picolinamide]
7 | 1100 | 43 | CC(C)N1CCC(c2cc(NC(=O)c3ccccn3)n(-c3ccccn3)n2)CC1 [Compound 010, N-(3-(1-isopropylpiperidin-4-yl)-1-(pyridin-2-yl)-1H-pyrazol-5-yl)picolinamide]
8 | 15 | 6 | Cc1ccc(-n2nc(C3CCN(C(C)C)CC3)cc2NC(=O)c2cccc(-c3cnoc3)n2)nc1 [Compound 006, N-(3-(1-isopropylpiperidin-4-yl)-1-(5-methylpyridin-2-yl)-1H-pyrazol-5-yl)-6-(isoxazol-4-yl)picolinamide]
9 | 10000 | 561 | CC(C)N1CCC(c2cc(NC(=O)c3cccc(N4CCNCC4)n3)n(-c3ccccn3)n2)CC1 [Compound 020, N-(3-(1-isopropylpiperidin-4-yl)-1-(pyridin-2-yl)-1H-pyrazol-5-yl)-6-(piperazin-1-yl)picolinamide]
10 | 372 | 24 | Cc1ccc(-n2nc(C3CCN(C(C)C)CC3)cc2NC(=O)c2cccc(-c3cnsc3)n2)nc1 [Compound 004, N-(3-(1-isopropylpiperidin-4-yl)-1-(5-methylpyridin-2-yl)-1H-pyrazol-5-yl)-6-(isothiazol-4-yl)picolinamide]
11 | 7 | 3 | Cc1ccc(-n2nc(C3CCN(C(C)C)CC3)cc2NC(=O)c2cccc(-c3ccn[nH]3)n2)nc1 [Compound 012, N-(3-(1-isopropylpiperidin-4-yl)-1-(5-methylpyridin-2-yl)-1H-pyrazol-5-yl)-6-(1H-pyrazol-5-yl)picolinamide]
12 | 66 | 6 | CC(C)N1CCC(c2cc(NC(=O)c3cccc(-c4cn[nH]c4)n3)n(-c3ccccn3)n2)CC1 [Compound 003, N-(3-(1-isopropylpiperidin-4-yl)-1-(pyridin-2-yl)-1H-pyrazol-5-yl)-6-(1H-pyrazol-4-yl)picolinamide]
13 | 183 | 37 | CC(C)N1CCC(c2cc(NC(=O)c3cccc(-c4cnsc4)n3)n(-c3ccccn3)n2)CC1 [Compound 005, N-(3-(1-isopropylpiperidin-4-yl)-1-(pyridin-2-yl)-1H-pyrazol-5-yl)-6-(isothiazol-4-yl)picolinamide]
14 | 828 | 39 | CC(C)N1CCC(c2cc(NC(=O)c3cccc(-c4cnn(CC(N)=O)c4)n3)n(-c3ccccn3)n2)CC1 [Compound 016, 6-(1-(2-amino-2-oxoethyl)-1H-pyrazol-4-yl)-N-(3-(1-isopropylpiperidin-4-yl)-1-(pyridin-2-yl)-1H-pyrazol-5-yl)picolinamide]
15 | 317 | 31 | CC(C)N1CCC(c2cc(NC(=O)c3cccc(-c4cnoc4)n3)n(-c3ccccn3)n2)CC1 [Compound 007, N-(3-(1-isopropylpiperidin-4-yl)-1-(pyridin-2-yl)-1H-pyrazol-5-yl)-6-(isoxazol-4-yl)picolinamide]
16 | 242 | 47 | CC(C)N1CCC(c2cc(NC(=O)c3cccc(CCC(N)=O)n3)n(-c3ccccn3)n2)CC1 [Compound 019, 6-(3-amino-3-oxopropyl)-N-(3-(1-isopropylpiperidin-4-yl)-1-(pyridin-2-yl)-1H-pyrazol-5-yl)picolinamide]
17 | 36 | 3 | Cc1ccc(-n2nc(C3CCN(C(C)C)CC3)cc2NC(=O)c2cccc(-c3cn[nH]c3)n2)nc1 [Compound 002, N-(3-(1-isopropylpiperidin-4-yl)-1-(5-methylpyridin-2-yl)-1H-pyrazol-5-yl)-6-(1H-pyrazol-4-yl)picolinamide]
18 | 90 | 9 | Cc1ccc(-n2nc(C3CCN(C(C)C)CC3)cc2NC(=O)c2cccc(C#N)n2)nc1 [Compound 017, 6-cyano-N-(3-(1-isopropylpiperidin-4-yl)-1-(5-methylpyridin-2-yl)-1H-pyrazol-5-yl)picolinamide]
19 | 835 | 170 | Cc1ccc(-n2nc(C3CCN(C)CC3)cc2NC(=O)c2ccccn2)nc1 [Compound 011, N-(3-(1-methylpiperidin-4-yl)-1-(5-methylpyridin-2-yl)-1H-pyrazol-5-yl)picolinamide]
